Measured values published in patent US20260335495A1, “SYNERGISTIC ACTIVITY OF NOVEL COMPOUNDS AGAINST PLANKTONIC AND BIOFILM CELLS OF CLINICALLY RELEVANT PATHOGENS” (priority 2021, published 2026).

Tests used:
[1] = tested on: preformed biofilms of test pathogens; assay: MBEC and FBEC index, 48 h old biofilms, summary over strains; assay type: cell-based, bacterial and fungal strains; settings: alone: 4% tetrasodium EDTA, 50% ethanol, 100 μg/mL chlorhexidine HCl, 24 hours
Experimental: The evaluation of the biofilm cultivation cell composition was evaluated using an MBEC Assay® biofilm inoculator, consisting of a polystyrene lid with 96 downward-protruding pegs and a corresponding base used to grow biofilms. A standardized inoculum was diluted in an appropriate biofilm growth medium to achieve a viable cell count of 1.5×10^6 CFU/mL of bacterial cells or 5×10^5 CFU/mL of fungal cells. Then, 150 μL of this inoculum was transferred into each appropriate well, and the peg lids were inserted into the microtiter plates. The plates were sealed with Parafilm and were incubated at optimum temperature for 48 h with slight rocking for bacteria and shaking at 200 rpm for fungal strains. After incubation, the peg lid was removed from the base and rinsed twice with sterile phosphate-buffered saline (PBS) for 2 min to remove loosely attached non-sessile cells. Before the antimicrobial challenge, the pegs in column 1 (n=8) were considered as the biofilm growth control; these pegs were removed from the lids, placed into 200 μL of recovery medium, and analyzed for starting biofilm cell numbers as described below. […] After the antimicrobial challenge, the pegs were rinsed twice with sterile PBS for 2 min and placed into a new 96-well plate containing 200 μL of recovery medium. The recovery plates were sealed with Parafilm, and biofilm cells were dislodged from the pegs by sonication for 30 min with a Branson 3510 bath sonicator. The biofilm cells in the recovery medium were serially diluted, and a drop dilution assay was performed to enumerate the viable cells.
In step (4), microtiter plates are incubated at 37 °C for 24 h. then (6), after incubation, the bacterial and fungal cells were dislodged from the pegs into the recovery medium described above.
Three 10-μL aliquots, for a total of 30 μL from each well of recovery medium, were spotted on MH agar plates and incubated for 24 hours at 37 °C. […] The FBEC determination is a modification of the FICI. […]

[2] = tested on: commonly encountered pathogens; settings: cited from earlier work
[3] = high concentrations, ALS for CVADs; cited from earlier work
Klebsiella pneumoniae = settings: 40 mg/mL, locked for 21-25 h, catheter segments; cited from earlier work
E. coli = settings: 40 mg/mL, locked for 21-25 h, catheter segments; cited from earlier work
S. epidermidis = settings: 40 mg/mL, locked for 21-25 h, catheter segments; cited from earlier work
P. aeruginosa = settings: 40 mg/mL, locked for 21-25 h, catheter segments; cited from earlier work
C. albicans = settings: 40 mg/mL, locked for 21-25 h, catheter segments; cited from earlier work
[4] = 40 mg/mL solution (4% solution) in distilled water; cited from earlier work
[5] = tested on: clinically relevant pathogens; settings: 4%; cited from earlier work

| SMILES | eradication of all established biofilms [1] | concentration required for a 3-log reduction [2] [%] | adverse events [3] | biofilm colonization (Klebsiella pneumoniae) | biofilm colonization (E. coli) | biofilm colonization (S. epidermidis) | biofilm colonization (P. aeruginosa) | biofilm colonization (C. albicans) | pH [4] | biofilm eradication and microbial killing [5] |
| --- | --- | --- | --- | --- | --- | --- | --- | --- | --- | --- |
| CCO [ET, ethanol] | able to eradicate all established biofilms | ≥ 60 | breaches in catheter integrity, systemic toxicity, and protein precipitation causing intraluminal occlusions |  |  |  |  |  |  |  |
| O=C(O)CN(CCN(CC(=O)O)CC(=O)O)CC(=O)O.[Na].[Na].[Na].[Na] [TE, tetrasodium ethylenediaminetetraacetic acid] | able to eradicate all established biofilms |  |  | reduced biofilm colonization | reduced biofilm colonization | reduced biofilm colonization | reduced biofilm colonization | reduced biofilm colonization | ~ 11.0 | biofilm eradication and microbial killing ability |
